Laboratory results reported in US20170298051A1, “ACTIVATOR OF ADIPONECTIN RECEPTOR” (THE UNIVERSITY OF TOKYO, priority 2013, published 2017).

Legend:
AdipoR1 = assay: Measurement of AMPK phosphorylation ability (Assay 2), C2C12 cells with unrelated or AdipoR1 siRNA; assay type: cell-based, Mouse
Protocol: C2C12 cells (ATCC; CRL-1772, medium; DMEM, 10% Fetal Bovine Serum (FBS)) were cultured in a 12- or 24-well plate until they reached 100% confluency (37° C., 5% CO2). The medium was changed to DMEM, 2.5% Horse Serum (HS) and differentiation was started. The medium (DMEM, 2.5% HS) was replaced two days after the start of differentiation. The medium (DMEM, 2.5% HS) was further replaced two days after that.
On the next day following the replacement of the medium, first, 1 μL of Lipofectamine RNAiMAX and 50 μL of OPTI-MEM were mixed, and then 5 μM siRNA (sense siRNA sequence: […]tt (SEQ ID NO: 1)) and 50 μL of OPTI-MEM were mixed and the resultants were left to stand at room temperature for 5 minutes. And then, the 1 μL Lipofectamine RNAiMAX/50 μL OPTI-MEM and the 5 μM siRNA/50 μL OPTI-MEM were mixed, and the resultant was left to stand at room temperature for 10 minutes, which was added to the cells.
After 5 minutes, the medium (DMEM, 2.5 HS) was replaced, and after starvation on the next day, a test compound listed in Table 12 was added thereto. After 10 minutes, the medium was discarded and the plate was frozen with liquid nitrogen.
The respective amounts of pAMPK and AMPK were determined in the same way as in the above Assay 1.

AMPK = AMPK phosphorylation in vivo in skeletal muscle and liver; parameters: species or system mice; conditions: intravenous 50 mg/kg
Protocol: Immunoblotting was carried out according to the method described previously by which the livers, muscles or white adipose tissues were freeze-clamped in liquid nitrogen in situ^b,d,e.
The procedures used for immunoprecipitation and immunoblotting have been described previously^a,f. Muscle, liver or cell lysates were incubated with 60 μl of protein G sepharose linked to antibodies against phosphotyrosine (4G10) (Merck Millipore). Beads were then washed, the resultant was boiled for 5 min in a sample buffer and the immunoprecipitates were subjected to immunoblotting. Phosphorylation and/or the protein levels of AMPKα (Cell signaling #2535, #2532), IRβ (Upstate 05-321, Santa Cruz sc-711), AKT (Cell signaling #9271, #9272), GSK3 (Cell signaling #5558, #9315) and tubulin (NeoMarkers RB-9281-PO) were determined as described^a,g,h.

[1] = Measurement of plasma concentrations of AdipoRon; assay type: in vivo, C57BL/6 mice; conditions: C57BL/6, mouse, C57B6 WT mice, oral 50 mg/kg, read-out: maximal concentration (Cmax) in plasma
Protocol: We measured the plasma concentrations of AdipoRon by HPLC and TSQ Quantum Ultra (ThermoFisher) in C57BL/6 mice orally administered with 50 mg of AdipoRon per kg bodyweight. For quantitative analyses, 20 μl of plasma was mixed with acetonitrile. The mixture was mixed vigorously for 30 sec and then centrifuged at 10,000 rpm for 3 min at 4° C. An aliquot of the supernatant was injected into the quantitative LC/MS system. Quantitative analyses were performed using an Accela HPLC system (ThermoFisher). The liquid chromatographic separations were carried out by using syncronis C18, 150×2.1 mm, 3 μm. Column temperature was held at 40° C. The flow rate was 0.2 ml/min. Elution solvent A was 0.1% formic acid in water and solvent B was 0.1% formic acid in methanol. The chromatographic conditions were as follows: 0-5 min 45% A/55% B; 5-6.5 min 5% A/95%B, 6.5-10 min 45%A/55%B. A typical injection volume was 3 μl. Quantitative analyses were performed using a TSQ Quantum Ultra triple-stage quadrupole mass spectrometer. Electro-spray ionization in positive ion mode (ESI+) was used for ionization and selective reaction monitoring (SRM) mode was chosen for detection. The optimized precursor ions pairs were m/z 429.251→91.057 for AdipoRon. […]

mice fed with a HF diet = assay: Treadmill exercise endurance in mice fed a HF diet; assay type: in vivo
Protocol: The treadmill exercise test regimen was 15 m/min for 20 min. Exercise endurance was assessed by dividing 20 min by the number of times a mouse was unable to avoid electrical shocks.

Lepr−/− (db/db) mice = assay: Anti-diabetic effects in db/db mice; assay type: in vivo
Protocol: Mice were 6-10 week of age at the time of the experiment. They were housed in cages and maintained on a 12 hr light-dark cycle.
Male Lepr^−/− (aged 6-10 week) were purchased from Jackson Laboratory. When the mice in the same genotype received different treatments, they were randomly assigned to treatment groups.
Plasma glucose levels were determined by using a glucose B-test (Wako Pure Chemical Industries). Plasma insulin was measured with an insulin immunoassay (Shibayagi). Plasma NEFAs (Wako Pure Chemical Industries) were assayed by enzymatic methods.
The oral glucose tolerance test (OGTT) and insulin tolerance test (ITT) were conducted as previously described^a,b with slight modifications. The areas of the glucose and insulin curves were calculated by multiplying the cumulative mean height of the glucose values (1 mg/ml=1 cm) and insulin values (1 ng/ml=1 cm), respectively, by time (60 min=1 cm)^c,a. The insulin resistance index was calculated from the product of the areas of glucose and insulin×10^−2 in the glucose tolerance test. The results are expressed as the percentage of the value respect to control littermates.

db/db mice = assay: Lifespan of db/db mice on a HF diet; assay type: in vivo; conditions: daily dose of 30 mg kg−1 body weight
Protocol: Because the HF diet has been reported to shorten the lifespan, we examined whether orally administered AdipoRon could prolong the shortened lifespan due to a HF diet or not.
That is, the db/db mice were randomly divided into 3 groups: a normal chow group (Normal chow, n=20), high-fat group (High-fat, n=20) and high-fat and additionally AdipoRon group (High-fat+AdipoRon, n=20), which were treated with AdipoRon at a daily dose of 30 mg kg^−1 body weight. The survival rate was recorded daily.

Cmax [1]: 11.8 µM
SMILES: O=C(COc1ccc(C(=O)c2ccccc2)cc1)NC1CCN(Cc2ccccc2)CC1 [Compound 73, 2-(4-benzoyl-phenoxy)-N-(1-benzylpiperidin-4-yl)acetamide]
pAMPK/AMPK (ratio) siRNA, AdipoR1 siRNA (AdipoR1; AdipoR1 siRNA): 2.68 ratio
pAMPK/AMPK (ratio) siRNA, unrelated siRNA (AdipoR1; unrelated siRNA): 4.75 ratio
phosphorylation of AMPK in skeletal muscle and liver (AMPK; Adipor1/r2 double-knockout mice): but not in Adipor1/r2 double-knockout mice
phosphorylation of AMPK in skeletal muscle and liver (AMPK; wild-type (WT) mice): significantly induced phosphorylation of AMPK
exercise endurance (mice fed with a HF diet; Adipor1/r2 double-knockout mice fed with a HF diet): but not in Adipor1/r2 double-knockout mice
exercise endurance (mice fed with a HF diet; WT mice fed with a HF diet): significantly increased exercise endurance
plasma glucose level (Lepr−/− (db/db) mice; oral 50 mg/kg body weight): decreased plasma glucose level
glucose intolerance, insulin resistance and dyslipidemia (Lepr−/− (db/db) mice; oral, 2 weeks): significantly ameliorated
lifespan (db/db mice): significantly rescued the shortened lifespan
